As a reminder, the inhibition is the change of the read-out against control, counted positive when it falls. By IC50 is commonly meant the point on the concentration scale where inhibition reaches its midpoint. A lower IC50 goes with higher potency.

This passage reports inhibition and IC50 results from ChEMBL document CHEMBL5303765, “Data for DCP probe BAY-7081” (2023).

Data set [1] has as its target Aldo-keto reductase family 1 member B1 (Rattus norvegicus) (UniProt P07943). Put plainly: Aldose Reductase Eurofins Panlabs panel. The conditions noted are these: Compound concentration 10.0 uM.
The target in data set [2] is Sodium/potassium-transporting ATPase (Sus scrofa) (UniProt P05027+P05024+D2WKD8+D2WKD7+F1ST41). Put plainly: ATPase, Na+/K+, Heart, Pig Eurofins Panlabs panel. It counts as protein-complex assay. The conditions noted are these: Compound concentration 10.0 uM.
In data set [3] the target is Acetylcholinesterase (Homo sapiens) (UniProt P22303). Put plainly: Cholinesterase, Acetyl, ACES Eurofins Panlabs panel. To be noted: Compound concentration 10.0 uM.
For data set [4], the target named is Prostaglandin G/H synthase 1 (Homo sapiens) (UniProt P23219). The experiment in a line: Cyclooxygenase COX-1 Eurofins Panlabs panel. The conditions noted are these: Compound concentration 10.0 uM.
Data set [5] addresses Monoamine oxidase B (MAO-B) (Homo sapiens, UniProt P27338). The experiment in a line: Monoamine Oxidase MAO-B Eurofins Panlabs panel. The conditions noted are these: compound concentration 10 uM.
Data set [6] concerns the target Nitric oxide synthase 1 (Rattus norvegicus) (UniProt P29476). The experiment in a line: Nitric Oxide Synthase, Neuronal (nNOS) Eurofins Panlabs panel. To be noted: Compound concentration 10.0 uM.
In data set [7] the target is Thromboxane-A synthase (Homo sapiens) (UniProt P24557). Put plainly: Thromboxane Synthase Eurofins Panlabs panel. The conditions noted are these: concentration not given here.
The target of data set [8] is T1, Alpha-2B adrenergic receptor (Homo sapiens) (UniProt P18089).
T1 sequence (whole entry): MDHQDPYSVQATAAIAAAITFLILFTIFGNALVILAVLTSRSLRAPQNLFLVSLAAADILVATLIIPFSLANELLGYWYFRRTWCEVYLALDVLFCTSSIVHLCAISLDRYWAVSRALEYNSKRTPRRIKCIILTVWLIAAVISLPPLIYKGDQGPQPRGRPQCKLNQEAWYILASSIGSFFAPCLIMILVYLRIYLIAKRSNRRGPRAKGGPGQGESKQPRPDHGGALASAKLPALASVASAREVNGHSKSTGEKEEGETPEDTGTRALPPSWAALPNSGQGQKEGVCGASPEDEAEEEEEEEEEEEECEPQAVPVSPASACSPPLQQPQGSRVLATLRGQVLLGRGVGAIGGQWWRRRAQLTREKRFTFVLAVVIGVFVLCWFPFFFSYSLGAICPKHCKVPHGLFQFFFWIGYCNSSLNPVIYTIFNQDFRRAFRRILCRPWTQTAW
Put plainly: Adrenergic alpha2B Eurofins Panlabs panel. To be noted: Compound concentration 10.0 uM.

In data set [9] the target is T2, Alpha-2C adrenergic receptor (Homo sapiens) (UniProt P18825).
T2 sequence (whole entry): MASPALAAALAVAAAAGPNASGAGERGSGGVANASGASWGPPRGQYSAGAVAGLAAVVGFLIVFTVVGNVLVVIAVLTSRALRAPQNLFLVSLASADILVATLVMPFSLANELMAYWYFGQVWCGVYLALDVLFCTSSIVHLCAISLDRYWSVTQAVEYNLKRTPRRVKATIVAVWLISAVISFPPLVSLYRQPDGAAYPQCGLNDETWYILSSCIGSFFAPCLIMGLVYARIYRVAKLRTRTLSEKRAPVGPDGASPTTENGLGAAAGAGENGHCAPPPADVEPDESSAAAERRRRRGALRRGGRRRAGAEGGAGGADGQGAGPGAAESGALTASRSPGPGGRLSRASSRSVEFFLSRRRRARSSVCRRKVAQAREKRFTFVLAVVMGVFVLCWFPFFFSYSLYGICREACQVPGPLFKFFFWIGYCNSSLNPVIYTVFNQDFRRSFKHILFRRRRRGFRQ
Put plainly: Adrenergic alpha2C Eurofins Panlabs panel. The conditions noted are these: Compound concentration 10.0 uM.

Data set [10] has as its target Beta-2 adrenergic receptor (Homo sapiens) (UniProt P07550). The experiment in a line: Adrenergic beta2 Eurofins Panlabs panel. The conditions noted are these: Compound concentration 10.0 uM.
Data set [11] concerns the target Beta-3 adrenergic receptor (Homo sapiens) (UniProt P13945). The experiment in a line: Adrenergic beta3 Eurofins Panlabs panel. The conditions noted are these: concentration not given here.
Data set [12] addresses Type-2 angiotensin II receptor (Homo sapiens) (UniProt P50052). The experiment in a line: Angiotensin AT2 Eurofins Panlabs panel. The conditions noted are these: Compound concentration 10.0 uM.
Data set [13] has as its target B2 bradykinin receptor (Homo sapiens) (UniProt P30411). Put plainly: Bradykinin B2 Eurofins Panlabs panel. To be noted: Compound concentration 10.0 uM.
Data set [14] addresses Cannabinoid receptor 1 (Homo sapiens) (UniProt P21554). The experiment in a line: Cannabinoid CB1 Eurofins Panlabs panel. The conditions noted are these: Compound concentration 10.0 uM.
In data set [15] the target is D(2) dopamine receptor (Homo sapiens) (UniProt P14416). The experiment in a line: Dopamine D2L Eurofins Panlabs panel. To be noted: Compound concentration 10.0 uM.
For data set [16] the target is unchanged. Put plainly: Dopamine D2S Eurofins Panlabs panel. The conditions noted are these: Compound concentration 10.0 uM.
Data set [17] concerns the target Endothelin receptor type B (Homo sapiens) (UniProt P24530). The experiment in a line: Endothelin ETB Eurofins Panlabs panel. The conditions noted are these: Compound concentration 10.0 uM.
In data set [18] the target is GABA-A receptor; anion channel (Rattus norvegicus) (UniProt O09028+P15431+P18506+P18508+P19969+P20236+P23574+P23576+P28471+P28473+P30191+P62813+P63079+P63138+Q91ZM7+Q9ES14). The experiment in a line: GABAA, Chloride Channel, TBOB Eurofins Panlabs panel. The data set is classed as protein-complex assay. The conditions noted are these: Compound concentration 10.0 uM.

Data set [19] deals with GABA B receptor (Rattus norvegicus) (UniProt Q9Z0U4+O88871). The experiment in a line: GABAB, Non-Selective Eurofins Panlabs panel. It counts as protein-complex assay. The conditions noted are these: Compound concentration 10.0 uM.
Data set [20] deals with Glutamate receptor ionotropic, kainate (Rattus norvegicus) (UniProt P22756+Q01812+P42260+P42264+Q63273). Put plainly: Glutamate, Kainate Eurofins Panlabs panel. The data set is classed as protein-complex assay. The conditions noted are these: Compound concentration 10.0 uM.
Data set [21] addresses Histamine H3 receptor (Homo sapiens) (UniProt Q9Y5N1). The experiment in a line: Histamine H3 Eurofins Panlabs panel. The conditions noted are these: Compound concentration 10.0 uM.
The target of data set [22] is Progesterone receptor (Homo sapiens) (UniProt P06401). The experiment in a line: Progesterone PR-B Eurofins Panlabs panel. The conditions noted are these: Compound concentration 10.0 uM.
Data set [23] concerns the target P2X receptor (Rattus norvegicus) (UniProt P51579+P49653+P51578+Q64663+P47824+P51577+P49654). The experiment in a line: Purinergic P2X Eurofins Panlabs panel. The data set is classed as protein assay. The conditions noted are these: concentration not given here.
Data set [24] deals with Sodium-dependent noradrenaline transporter (Homo sapiens) (UniProt P23975). The experiment in a line: Transporter, Norepinephrine (NET) Eurofins Panlabs panel. To be noted: Compound concentration 10.0 uM.
In data set [25] the target is Sodium-dependent serotonin transporter (Homo sapiens) (UniProt P31645). Put plainly: Transporter, Serotonin (5-Hydroxytryptamine) (SERT) Eurofins Panlabs panel. The conditions noted are these: Compound concentration 10.0 uM.
Data set [26] deals with L-type calcium channel, dihydropyridine site (Rattus norvegicus, UniProt P22002+P27732+Q02485). The experiment in a line: Calcium Channel L-Type, Dihydropyridine Eurofins Panlabs panel. It counts as protein assay. To be noted: compound concentration 10 uM.
Data set [27] concerns the target Interleukin-1 receptor type 1 (Mus musculus) (UniProt P13504). The experiment in a line: Interleukin IL-1 Eurofins Panlabs panel. To be noted: Compound concentration 10.0 uM.
The species named for data set [28] is Rattus norvegicus. Put plainly: Imidazoline I2, Central Eurofins Panlabs panel. The conditions noted are these: Compound concentration 10.0 uM.
Data set [29] deals with Neuropeptide Y receptor type 1 (Homo sapiens) (UniProt P25929). The experiment in a line: Neuropeptide Y Y1 Eurofins Panlabs panel. To be noted: Compound concentration 10.0 uM.
Data set [30] concerns the target Alpha-1A adrenergic receptor (Homo sapiens) (UniProt P35348). To be noted: Compound concentration 10.0 uM.
Data set [31] has as its target cGMP-specific 3',5'-cyclic phosphodiesterase (Homo sapiens, UniProt O76074). The experiment in a line: Panlabs assay PDE5A. More on the design: compound concentration 10 uM. The conditions noted are these: at 10 µM.
In data set [32] the target is High affinity 3',5'-cyclic-AMP phosphodiesterase 7A (Homo sapiens) (UniProt Q13946). The experiment in a line: Panlabs assay PDE7A. On the set-up: compound concentration 10 uM. The conditions noted are these: at 10 µM.
Data set [33] addresses 3',5'-cyclic-AMP phosphodiesterase 7B (Homo sapiens, UniProt Q9NP56). Put plainly: Panlabs assay PDE7B. More on the design: compound concentration 10 uM. To be noted: at 10 µM.
Data set [34] has as its target High affinity cGMP-specific 3',5'-cyclic phosphodiesterase 9A (Homo sapiens, UniProt O76083). The experiment in a line: Panlabs assay PDE9A2. On the set-up: compound concentration 10 uM.

Sequence of Alpha-1A adrenergic receptor (Homo sapiens) (P35348 whole entry): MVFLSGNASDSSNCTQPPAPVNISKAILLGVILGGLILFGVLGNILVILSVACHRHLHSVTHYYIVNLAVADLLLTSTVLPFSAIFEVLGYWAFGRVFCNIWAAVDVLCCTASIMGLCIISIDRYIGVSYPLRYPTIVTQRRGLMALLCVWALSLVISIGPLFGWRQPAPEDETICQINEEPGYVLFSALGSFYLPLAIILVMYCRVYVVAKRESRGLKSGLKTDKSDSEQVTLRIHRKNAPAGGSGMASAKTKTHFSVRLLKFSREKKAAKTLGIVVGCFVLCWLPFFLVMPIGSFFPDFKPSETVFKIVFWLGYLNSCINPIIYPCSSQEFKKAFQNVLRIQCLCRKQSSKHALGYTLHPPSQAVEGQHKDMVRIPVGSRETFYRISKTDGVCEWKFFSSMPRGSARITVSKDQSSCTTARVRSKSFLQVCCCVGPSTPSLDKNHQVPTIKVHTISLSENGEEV
Sequence of D(2) dopamine receptor (Homo sapiens) (P14416 whole entry): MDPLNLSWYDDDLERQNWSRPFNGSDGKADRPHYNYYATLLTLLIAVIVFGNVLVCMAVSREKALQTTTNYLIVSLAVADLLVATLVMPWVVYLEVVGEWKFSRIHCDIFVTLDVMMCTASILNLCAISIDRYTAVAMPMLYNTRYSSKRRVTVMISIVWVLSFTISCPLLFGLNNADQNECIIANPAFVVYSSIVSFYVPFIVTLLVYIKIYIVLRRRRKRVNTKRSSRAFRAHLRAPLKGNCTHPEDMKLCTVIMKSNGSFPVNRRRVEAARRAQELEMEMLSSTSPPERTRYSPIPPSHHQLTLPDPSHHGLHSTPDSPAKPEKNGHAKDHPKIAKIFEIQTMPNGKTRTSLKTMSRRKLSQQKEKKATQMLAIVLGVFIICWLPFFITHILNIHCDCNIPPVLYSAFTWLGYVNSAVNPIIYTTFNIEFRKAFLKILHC
Sequence of 3',5'-cyclic-AMP phosphodiesterase 7B (Q9NP56 whole entry): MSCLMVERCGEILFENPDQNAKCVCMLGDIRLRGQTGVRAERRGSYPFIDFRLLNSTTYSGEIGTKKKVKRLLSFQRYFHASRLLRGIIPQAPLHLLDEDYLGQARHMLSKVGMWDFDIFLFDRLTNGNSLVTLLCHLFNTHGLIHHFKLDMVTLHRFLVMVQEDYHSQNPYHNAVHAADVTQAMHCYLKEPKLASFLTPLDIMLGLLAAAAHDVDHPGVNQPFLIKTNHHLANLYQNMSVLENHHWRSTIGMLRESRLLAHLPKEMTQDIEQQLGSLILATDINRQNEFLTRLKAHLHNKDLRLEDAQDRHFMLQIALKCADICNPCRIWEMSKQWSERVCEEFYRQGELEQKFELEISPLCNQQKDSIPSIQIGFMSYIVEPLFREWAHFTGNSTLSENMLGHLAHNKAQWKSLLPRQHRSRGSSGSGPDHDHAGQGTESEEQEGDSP
Sequence of Neuropeptide Y receptor type 1 (Homo sapiens) (P25929 whole entry): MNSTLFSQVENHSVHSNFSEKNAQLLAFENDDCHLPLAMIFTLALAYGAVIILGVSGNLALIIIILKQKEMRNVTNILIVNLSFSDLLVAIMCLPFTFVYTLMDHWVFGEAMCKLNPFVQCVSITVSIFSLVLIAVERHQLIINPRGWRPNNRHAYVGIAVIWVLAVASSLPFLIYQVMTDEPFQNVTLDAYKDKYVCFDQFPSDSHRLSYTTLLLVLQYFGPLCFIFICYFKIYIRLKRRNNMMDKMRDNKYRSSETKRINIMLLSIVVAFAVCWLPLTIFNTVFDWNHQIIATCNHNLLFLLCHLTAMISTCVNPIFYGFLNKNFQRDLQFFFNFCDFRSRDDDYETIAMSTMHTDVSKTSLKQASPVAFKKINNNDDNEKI
Sequence of High affinity cGMP-specific 3',5'-cyclic phosphodiesterase 9A (O76083 whole entry): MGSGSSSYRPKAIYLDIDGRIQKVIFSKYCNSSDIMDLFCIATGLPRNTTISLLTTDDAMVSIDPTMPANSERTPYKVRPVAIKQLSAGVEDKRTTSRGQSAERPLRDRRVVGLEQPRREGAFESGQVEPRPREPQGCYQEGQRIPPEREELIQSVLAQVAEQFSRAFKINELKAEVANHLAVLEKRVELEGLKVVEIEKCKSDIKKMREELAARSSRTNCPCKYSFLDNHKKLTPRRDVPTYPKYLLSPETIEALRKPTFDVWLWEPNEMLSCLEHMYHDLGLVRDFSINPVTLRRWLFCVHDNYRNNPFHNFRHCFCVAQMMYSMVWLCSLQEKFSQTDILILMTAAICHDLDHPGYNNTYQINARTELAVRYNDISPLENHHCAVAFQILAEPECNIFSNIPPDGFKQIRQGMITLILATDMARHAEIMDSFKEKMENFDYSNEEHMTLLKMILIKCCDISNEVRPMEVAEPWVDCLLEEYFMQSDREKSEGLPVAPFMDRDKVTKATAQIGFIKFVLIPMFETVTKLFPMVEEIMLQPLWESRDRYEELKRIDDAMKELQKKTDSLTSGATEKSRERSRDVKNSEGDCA
Sequence of Sodium-dependent serotonin transporter (Homo sapiens) (P31645 whole entry, looked up): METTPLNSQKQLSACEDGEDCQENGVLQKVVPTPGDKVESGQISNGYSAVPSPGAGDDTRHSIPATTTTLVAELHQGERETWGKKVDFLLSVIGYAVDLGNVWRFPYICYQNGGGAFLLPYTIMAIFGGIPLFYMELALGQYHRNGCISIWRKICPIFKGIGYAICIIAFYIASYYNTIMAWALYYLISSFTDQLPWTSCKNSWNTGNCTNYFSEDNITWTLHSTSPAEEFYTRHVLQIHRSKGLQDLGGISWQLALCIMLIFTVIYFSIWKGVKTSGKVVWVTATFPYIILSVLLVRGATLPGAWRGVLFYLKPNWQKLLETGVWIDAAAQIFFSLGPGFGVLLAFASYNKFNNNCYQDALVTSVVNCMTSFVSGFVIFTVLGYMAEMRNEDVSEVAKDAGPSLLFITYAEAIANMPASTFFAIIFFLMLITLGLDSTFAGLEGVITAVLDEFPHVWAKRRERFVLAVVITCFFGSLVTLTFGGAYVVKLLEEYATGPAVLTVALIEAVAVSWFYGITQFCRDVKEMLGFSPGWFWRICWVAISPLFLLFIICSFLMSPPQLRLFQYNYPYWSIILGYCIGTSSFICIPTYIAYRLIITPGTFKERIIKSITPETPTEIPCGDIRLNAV
Sequence of Cannabinoid receptor 1 (Homo sapiens) (P21554 whole entry): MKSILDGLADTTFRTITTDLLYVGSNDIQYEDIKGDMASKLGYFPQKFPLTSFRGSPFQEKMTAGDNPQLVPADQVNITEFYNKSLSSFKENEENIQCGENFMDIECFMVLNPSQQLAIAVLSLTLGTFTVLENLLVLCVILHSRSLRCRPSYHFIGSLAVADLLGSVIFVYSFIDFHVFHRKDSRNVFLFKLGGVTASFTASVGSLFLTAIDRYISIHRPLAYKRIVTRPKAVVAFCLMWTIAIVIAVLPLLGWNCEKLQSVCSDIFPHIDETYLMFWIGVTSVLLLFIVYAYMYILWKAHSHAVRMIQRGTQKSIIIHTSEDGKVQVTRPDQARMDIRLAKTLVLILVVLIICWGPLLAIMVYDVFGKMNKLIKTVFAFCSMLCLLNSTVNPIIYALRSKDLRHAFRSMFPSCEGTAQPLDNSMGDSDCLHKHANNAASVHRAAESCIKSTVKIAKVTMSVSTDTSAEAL
Sequence of Type-2 angiotensin II receptor (Homo sapiens) (P50052 whole entry): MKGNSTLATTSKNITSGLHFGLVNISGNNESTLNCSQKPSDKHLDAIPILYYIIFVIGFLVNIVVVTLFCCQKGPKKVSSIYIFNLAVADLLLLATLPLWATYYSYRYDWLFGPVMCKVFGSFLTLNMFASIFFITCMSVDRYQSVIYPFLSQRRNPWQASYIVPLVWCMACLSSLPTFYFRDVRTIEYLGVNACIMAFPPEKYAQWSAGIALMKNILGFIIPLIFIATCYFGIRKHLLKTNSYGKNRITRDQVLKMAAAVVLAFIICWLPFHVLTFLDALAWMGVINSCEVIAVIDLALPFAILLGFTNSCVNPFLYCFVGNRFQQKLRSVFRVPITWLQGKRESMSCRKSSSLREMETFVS
Sequence of B2 bradykinin receptor (Homo sapiens) (P30411 whole entry): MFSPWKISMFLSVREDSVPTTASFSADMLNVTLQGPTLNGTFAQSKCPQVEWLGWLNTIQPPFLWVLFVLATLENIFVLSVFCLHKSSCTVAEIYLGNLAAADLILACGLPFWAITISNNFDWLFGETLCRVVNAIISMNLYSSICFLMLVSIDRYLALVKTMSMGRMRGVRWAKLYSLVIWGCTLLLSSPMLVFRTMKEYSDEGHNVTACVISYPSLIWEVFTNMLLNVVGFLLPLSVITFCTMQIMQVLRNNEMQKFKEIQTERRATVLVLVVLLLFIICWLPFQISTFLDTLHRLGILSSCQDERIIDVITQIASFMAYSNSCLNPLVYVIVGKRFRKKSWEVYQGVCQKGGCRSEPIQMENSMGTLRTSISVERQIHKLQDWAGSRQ
Sequence of Beta-3 adrenergic receptor (Homo sapiens) (P13945 whole entry, looked up): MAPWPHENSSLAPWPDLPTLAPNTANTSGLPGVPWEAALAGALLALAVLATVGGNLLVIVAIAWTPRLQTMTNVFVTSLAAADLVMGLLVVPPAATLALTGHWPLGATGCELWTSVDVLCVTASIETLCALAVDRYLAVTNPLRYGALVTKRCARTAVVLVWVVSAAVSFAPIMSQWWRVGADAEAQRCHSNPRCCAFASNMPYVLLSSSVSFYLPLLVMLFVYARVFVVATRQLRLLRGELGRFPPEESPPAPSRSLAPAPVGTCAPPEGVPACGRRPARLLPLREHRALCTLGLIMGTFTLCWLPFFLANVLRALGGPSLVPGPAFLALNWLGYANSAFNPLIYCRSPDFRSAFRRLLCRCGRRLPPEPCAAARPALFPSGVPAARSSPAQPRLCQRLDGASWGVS

As to `CCC[C@H]1CNCc2c1[nH]c(=O)c(C#N)c2N1CCC2(CC1)CC2`, the inhibition in data set [1] is 4%; in [2], -1%; in [3], 5%; in data set [4], 1%; in [6] it was -2%; in [7], 0%. Besides, the inhibition in data set [8] was 7%; in data set [9] it was -1%; in data set [10], -6%; in [11], 0%; in data set [12], 3%; in [13] it was -4%. For the same compound, the inhibition in [14] is 31.2%; in data set [15] it was 12%; in data set [16], -2%; in data set [17], 8%; in data set [18], 4%; in [19] it was -1%. The inhibition was -0.5% in data set [20]; 5% in data set [21]; 2% in [22]; 0% in data set [23]; 6% in [24]; 3.5% in data set [25]. For the same compound, the inhibition is 14% in data set [27], 32.5% in data set [28], 15% in data set [29] and 6.38% in data set [30]. The inhibition at 10 µM in data set [5] came out at 2%; in [26] it was 29%.

With `CCC[C@@H]1CNCc2c1[nH]c(=O)c(C#N)c2N1CCC2(CC1)CC2`, the results for the inhibition in [31], in [32] and in [33] were 12.2%, -1.6% and -2.1%, respectively. Moreover, in data set [34], the half-inhibitory concentration (IC50) is recorded as 7.47 µM (not active).
